The assay has as its target T1, P2X purinoceptor 4 (Homo sapiens, UniProt Q99571).
T1 sequence (Q99571 whole entry): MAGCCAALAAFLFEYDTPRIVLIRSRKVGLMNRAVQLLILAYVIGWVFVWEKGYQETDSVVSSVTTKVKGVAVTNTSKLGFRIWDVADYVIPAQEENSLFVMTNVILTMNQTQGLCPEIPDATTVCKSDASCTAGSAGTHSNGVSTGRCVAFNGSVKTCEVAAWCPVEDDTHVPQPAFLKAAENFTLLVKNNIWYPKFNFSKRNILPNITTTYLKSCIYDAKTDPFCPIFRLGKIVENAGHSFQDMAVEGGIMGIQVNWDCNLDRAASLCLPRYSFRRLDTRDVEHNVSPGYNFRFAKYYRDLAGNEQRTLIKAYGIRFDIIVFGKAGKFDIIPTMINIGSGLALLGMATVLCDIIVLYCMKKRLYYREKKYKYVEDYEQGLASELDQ
The assay can be described thus: Inhibition of human P2X4 stably expressed in human HEK293 cells assessed as intracellular calcium flux incubated for 30 mins in presence of agonist Benzoylbenzoyl-ATP by Fluo8-AM dye based FLIPR assay. Format: cell-based. Background: A change in cytosolic calcium serves as a functional read-out for many receptors and channels.

A word on the IC50: it is the concentration that inhibits the measured activity by half.

`CC(=O)N(c1ccc2ncoc2c1)c1cc(NC(=O)Cc2ccccc2Cl)ccn1`: the 50% inhibitory concentration (IC50) is 168 nM.

As for `CC(=O)N(c1ccc2ncsc2c1)c1cc(NC(=O)Cc2ccccc2Cl)ccn1`, the 50% inhibitory concentration (IC50) amounted to 142 nM.

With `CC(=O)N(c1ccn2nccc2c1)c1cc(NC(=O)Cc2c(Cl)cccc2Cl)ccn1`, the IC50 was 157 nM.

For the compound `CC(=O)N(c1cc(NC(=O)Cc2c(Cl)cccc2Cl)ccn1)c1ccncc1F`, the IC50 is 171 nM.

Take `CC(=O)N(c1ccc2ncoc2c1)c1cc(NC(=O)Cc2cccc(F)c2Cl)ccn1`: the half-maximal inhibitory concentration (IC50) turned out to be 143 nM.

Regarding `CC(=O)N(c1ccc2ncoc2c1)c1cc(NC(=O)Cc2c(Cl)cccc2Cl)ccn1`, the IC50 was found to be 141 nM.

The values are drawn from ChEMBL document CHEMBL5131526, “Substituted N-Heteroaryl-N-Pyridinylacetamides as P2X4 Modulators for Treating Pain” (ACS Med Chem Lett, 2022).
